Patent US12344610B2, “APOL1 inhibitors and methods of use” (Maze Therapeutics, Inc., priority 2022, dated 2025)

What was measured:
[1] = tested on: HEK293 cells overexpressing APOL1 G2; experiment: APOL1 G2 HEK293 cell rescue assay (reversal of cell death caused by overexpression of APOL1); assay type: cell-based; details: geometric mean of at least 2 assay runs, † = single assay run
Protocol: Unless otherwise specified, EC50 values are reported as the geometric mean of at least 2 assay runs on separate days. Each run represents the average of a technical replicate, where each compound was assayed twice in the same plate. A superscript t symbol indicates a value from the average of a technical replicate from a single assay run, where each compound was assayed twice in the same plate. Compounds in Table 40 are referred to by the corresponding Compound Number in Table 1, which is also referred to in the synthetic examples. When one or more of the numbered compounds are identified by stereochemistry (for example, (R)- or (S)-), the specific stereoisomer for which data is provided in Table 40 may be identified by the elution order of such compound as described in the synthetic examples. Absolute stereochemistry of such compounds may be identified by methods known in the art. For Table 40 below, n/a represents “not available”.
Rescue EC50 values reported in Table 40 below represent the half-maximal effective concentration for reversal of cell death caused by overexpression of APOL1.

[2] = tested on: HEK293 clonal cell line overexpressing APOL1 G1; experiment: APOL1 G1 HEK293 cell rescue assay (Example B3); assay type: cell-based; details: geometric mean of at least 2 runs, † = single run, ¥ = concentration at 50% rescue estimated (no sigmoidal curve)
Protocol: Compounds were also assayed in a HEK293 clonal cell line overexpressing APOL1 G1 by a method similar to that shown in Example B2 above.
Unless otherwise specified, EC50 values are reported as the geometric mean of at least 2 assay runs on separate days. Each run represents the average of a technical replicate, where each compound was assayed twice in the same plate. A superscript † symbol indicates a value from the average of a technical replicate from a single assay run, where each compound was assayed twice in the same plate. A ¥ symbol represents compound concentration at 50% rescue estimated due to lack of sigmoidal curve preventing curve fitting. Compounds in Table 41 are referred to by the corresponding Compound Number in Table 1, which is also referred to in the synthetic examples. When one or more of the numbered compounds are identified by stereochemistry (for example, (R)- or (S)-), the specific stereoisomer for which data is provided in Table 41 may be identified by the elution order of such compound as described in the synthetic examples. Absolute stereochemistry of such compounds may be identified by methods known in the art. For Table 41 below, n/a represents “not available”.
Rescue EC50 values reported in Table 41 below represent the half-maximal effective concentration for reversal of cell death caused by overexpression of APOL1.

[3] = HEK293 clonal line overexpressing APOL1 G1
[4] = Homo sapiens, HEK293, HEK293 overexpressing APOL1 G2
[5] = Homo sapiens, HEK293, HEK293 clonal line overexpressing APOL1 G1

Structure (SMILES)	EC50 ([1]; HEK293 overexpressing APOL1 G2)	EC50 [2, 3]	EC50 [1, 4]	EC50 [2, 5]
CC(COc1ccc(S(C)(=O)=O)cc1)N1CCC2(CC1)C(=O)N(C1CC(O)C1)c1ccc(Cl)cc12 (single isomer, unassigned) [Compound 206, 5-chloro-1′-[(2S) or (2R)-1-(4-methanesulfonylphenoxy)propan-2-yl]-1-[(cis) or (trans)-3-hydroxycyclobutyl]-1,2-dihydrospiro[indole-3,4′-piperidin]-2-one]	> 9540 nM	4310 nM		
CC(COc1ccc(S(C)(=O)=O)cc1)N1CCC2(CC1)C(=O)N(C1CC(O)C1)c1ccc(Cl)cc12 (single isomer, unassigned) [Compound 207, 5-chloro-1′-[(2S) or (2R)-1-(4-methanesulfonylphenoxy)propan-2-yl]-1-[(trans) or (cis)-3-hydroxycyclobutyl]-1,2-dihydrospiro[indole-3,4′-piperidin]-2-one]	> 10000 nM	> 10000 nM		
O=C1CCc2cc(OCCN3CCC4(CC3)C(=O)Nc3ccc(C(F)F)cc34)cnc2N1C1CC(CO)C1 (single isomer, unassigned) [Compound 310, 5-(difluoromethyl)-1′-[2-({7-oxo-8-[(trans) or (cis)-3-(hydroxymethyl)cyclobutyl]-5,6,7,8-tetrahydro-1,8-naphthyridin-3-yl}oxy)ethyl]-1,2-dihydrospiro[indole-3,4′-piperidin]-2-one]	103 nM	267 nM		
O=C1Nc2ccc(Cl)cc2C12CCN(CCOc1cnc(C(O)CO)nc1)CC2 (single isomer, unassigned) [Compound 378, 5-chloro-1′-[2-({2-[(1S or 1R)-1,2-dihydroxyethyl]pyrimidin-5-yl}oxy)ethyl]-1,2-dihydrospiro[indole-3,4′-piperidin]-2-one]	388 nM	~1000 nM		
O=C1Nc2ccc(Cl)cc2C12CCN(CCOc1cnc(C(O)CO)nc1)CC2 (single isomer, unassigned) [Compound 379, 5-chloro-1′-[2-({2-[(1R or 1S)-1,2-dihydroxyethyl]pyrimidin-5-yl}oxy)ethyl]-1,2-dihydrospiro[indole-3,4′-piperidin]-2-one]	842 nM	> 10000 nM		
CC(CO)(c1ncc(OCCN2CCC3(CC2)C(=O)Nc2ccc(Cl)cc23)cc1C(F)(F)F)S(C)(=O)=O (single isomer, unassigned) [Compound 403, 5-chloro-1′-[2-({6-[(2R or 2S)-1-hydroxy-2-methanesulfonylpropan-2-yl]-5-(trifluoromethyl)pyridin-3-yl}oxy)ethyl]-1,2-dihydrospiro[indole-3,4′-piperidin]-2-one]	95.7 nM	144 nM		
CN1C(=O)C2(CCN(CCOc3ccc(C4(S(C)(=O)=O)CC(O)C4)cc3)CC2)c2cc(C(F)F)ccc21 (stereo not drawn) [Compound 277, 5-(difluoromethyl)-1′-{2-[4-(3-hydroxy-1-methanesulfonylcyclobutyl)phenoxy]ethyl}-1-methyl-1,2-dihydrospiro[indole-3,4′-piperidin]-2-one]			34 nM	117 nM
CS(=O)(=O)C1(c2ccc(OCCN3CCC4(CC3)C(=O)Nc3ccc(C(F)F)cc34)cc2)CC(O)C1 (stereo not drawn) [Compound 280, 5-(difluoromethyl)-1′-{2-[4-(3-hydroxy-1-methanesulfonylcyclobutyl)phenoxy]ethyl}-1,2-dihydrospiro[indole-3,4′-piperidin]-2-one]			80 nM	235 nM
O=C1CCc2cc(OCCN3CCC4(CC3)C(=O)Nc3ccc(Cl)cc34)cnc2N1 [Compound 293, 5-chloro-1′-{2-[(7-oxo-5,6,7,8-tetrahydro-1,8-naphthyridin-3-yl)oxy]ethyl}-1,2-dihydrospiro[indole-3,4′-piperidin]-2-one]			294 nM	193 nM
CC(O)c1ncc(OCCN2CCC3(CC2)C(=O)Nc2ccc(C(F)F)cc23)cc1C(F)(F)F (stereo not drawn) [Compound 296, 5-(difluoromethyl)-1′-(2-{[6-(1-hydroxyethyl)-5-(trifluoromethyl)pyridin-3-yl]oxy}ethyl)-1,2-dihydrospiro[indole-3,4′-piperidin]-2-one]			77.3 nM	159 nM
O=C1CCc2cc(OCCN3CCC4(CC3)C(=O)Nc3ccc(Cl)cc34)cnc2N1C1CC(O)(C2CC2)C1 (stereo not drawn) [Compound 299, 5-chloro-1′-(2-{[8-(3-cyclopropyl-3-hydroxycyclobutyl)-7-oxo-5,6,7,8-tetrahydro-1,8-naphthyridin-3-yl]oxy}ethyl)-1,2-dihydrospiro[indole-3,4′-piperidin]-2-one]			21.3 nM	63.6 nM
CCC1(O)CC(N2C(=O)CCc3cc(OCCN4CCC5(CC4)C(=O)Nc4ccc(Cl)cc45)cnc32)C1 (stereo not drawn) [Compound 318]			23.2 nM	65.9 nM
O=C1Nc2ccc(Cl)cc2C12CCN(CCOc1cnc(C(O)CO)nc1)CC2 (stereo not drawn) [Compound 330, 5-chloro-1′-(2-{[2-(1,2-dihydroxyethyl)pyrimidin-5-yl]oxy}ethyl)-1,2-dihydrospiro[indole-3,4′-piperidin]-2-one]			668 nM	~1500 nM
N#Cc1ccc2c(c1)C1(CCN(CCOc3cnc(CCO)nc3)CC1)C(=O)N2 [Compound 332, 1′-(2-{[2-(2-hydroxyethyl)pyrimidin-5-yl]oxy}ethyl)-2-oxo-1,2-dihydrospiro[indole-3,4′-piperidine]-5-carbonitrile]				~10000 nM
CC(O)c1ncc(OCCN2CCC3(CC2)C(=O)Nc2ccc(C#N)cc23)cc1C(F)(F)F (stereo not drawn) [Compound 338, 1′-(2-{[6-(1-hydroxyethyl)-5-(trifluoromethyl)pyridin-3-yl]oxy}ethyl)-2-oxo-1,2-dihydrospiro[indole-3,4′-piperidine]-5-carbonitrile]			99.4 nM	213 nM
C[C@]1(O)C[C@@H](n2c(=O)cc(C(F)F)c3cc(OCCN4CCC5(CC4)C(=O)Nc4ccc(Cl)cc45)cnc32)C1 [Compound 339, 5-chloro-1′-(2-{[5-(difluoromethyl)-7-oxo-8-[(cis)-3-hydroxy-3-methylcyclobutyl]-7,8-dihydro-1,8-naphthyridin-3-yl]oxy}ethyl)-1,2-dihydrospiro[indole-3,4′-piperidin]-2-one]			36.6 nM	
C[C@]1(O)C[C@@H](n2c(=O)cc(C(F)F)c3cc(OCCN4CCC5(CC4)C(=O)Nc4ccc(C(F)F)cc45)cnc32)C1 [Compound 340, 5-(difluoromethyl)-1′-(2-{[5-(difluoromethyl)-7-oxo-8-[(cis)-3-hydroxy-3-methylcyclobutyl]-7,8-dihydro-1,8-naphthyridin-3-yl]oxy}ethyl)-1,2-dihydrospiro[indole-3,4′-piperidin]-2-one]			30.2 nM	
CP(C)(=O)C1(c2ncc(OCCN3CCC4(CC3)C(=O)Nc3ccc(Cl)cc34)cn2)CC1 [Compound 344, 5-chloro-1′-[2-({2-[1-(dimethylphosphoryl)cyclopropyl]pyrimidin-5-yl}oxy)ethyl]-1,2-dihydrospiro[indole-3,4′-piperidin]-2-one]			194 nM	254 nM
C[C@]1(O)C[C@@H](n2cnc3cc(OCCN4CCC5(CC4)C(=O)Nc4ccc(Cl)cc45)ccc32)C1 [Compound 351, 5-chloro-1′-[2-({1-[(cis)-3-hydroxy-3-methylcyclobutyl]-1H-1,3-benzodiazol-5-yl}oxy)ethyl]-1,2-dihydrospiro[indole-3,4′-piperidin]-2-one]			166 nM	299 nM
C[C@]1(O)C[C@@H](N2C(=O)CCc3cc(OCCN4CCC5(CC4)C(=O)Nc4ccc(Cl)cc45)cc(C(F)(F)F)c32)C1 [Compound 353, 5-chloro-1′-[2-({2-oxo-1-[(cis)-3-hydroxy-3-methylcyclobutyl]-8-(trifluoromethyl)-1,2,3,4-tetrahydroquinolin-6-yl}oxy)ethyl]-1,2-dihydrospiro[indole-3,4′-piperidin]-2-one]			12.3 nM	34.5 nM
C[C@]1(O)C[C@@H](N2C(=O)CCc3cc(OCCN4CCC5(CC4)C(=O)Nc4ccc(C#N)cc45)cc(C(F)(F)F)c32)C1 [Compound 354, 2-oxo-1′-[2-({2-oxo-1-[(cis)-3-hydroxy-3-methylcyclobutyl]-8-(trifluoromethyl)-1,2,3,4-tetrahydroquinolin-6-yl}oxy)ethyl]-1,2-dihydrospiro[indole-3,4′-piperidine]-5-carbonitrile]			14.6 nM	40.1 nM
